The text below walks through data of paper PMC12203311, “Design, synthesis, in silico and in vitro evaluation of pyrrole–indole hybrids as dual tubulin and aromatase inhibitors with potent anticancer activities” (RSC Advances, 2025).

A word on the GI50: it is the concentration giving 50% growth inhibition. A higher GI50 goes with less potent growth inhibition.

In one test the test system is RPMI-8226. Kind of test: NCI60 five-dose screen. It counts as cell-based. As to conditions: Homo sapiens, RPMI-8226, leukemia; for CC50: read-out: LC50 (the source's name).
The next test has as its system SR. Kind of test: NCI60 five-dose screen. It counts as cell-based. As to conditions: Homo sapiens, leukemia; for CC50: read-out: LC50 (the source's name).
Another test relates to HOP-62. Put plainly: NCI60 five-dose screen. It counts as cell-based. As to conditions: Homo sapiens, HOP-62, NSC lung cancer; for CC50: read-out: LC50 (the source's name).
The next test relates to M14. Kind of test: NCI60 five-dose screen. As to conditions: Homo sapiens, M14, melanoma; for CC50: read-out: LC50 (the source's name). The test is classed as cell-based.
A further test concerns A498. Put plainly: NCI60 five-dose screen. It counts as cell-based. As to conditions: Homo sapiens, A498, renal cancer; for CC50: read-out: LC50 (the source's name).
The next test relates to ACHN. Put plainly: NCI60 five-dose screen. The test is classed as cell-based. As to conditions: Homo sapiens, renal cancer; for CC50: read-out: LC50 (the source's name).
Another test has as its system MDA-MB-231/ATCC. Kind of test: NCI60 five-dose screen. As to conditions: Homo sapiens, breast cancer; for CC50: read-out: LC50 (the source's name). The test is classed as cell-based.
A further test deals with T1, porcine brain tubulin (Sus scrofa, UniProt P02550+P02554).
T1 construct: a solution containing porcine brain tubulin (2 mg mL^−1); purchased Cytoskeleton BK011P; host or cells: porcine brain (tissue-purified)
T1 sequence (P02554 whole entry): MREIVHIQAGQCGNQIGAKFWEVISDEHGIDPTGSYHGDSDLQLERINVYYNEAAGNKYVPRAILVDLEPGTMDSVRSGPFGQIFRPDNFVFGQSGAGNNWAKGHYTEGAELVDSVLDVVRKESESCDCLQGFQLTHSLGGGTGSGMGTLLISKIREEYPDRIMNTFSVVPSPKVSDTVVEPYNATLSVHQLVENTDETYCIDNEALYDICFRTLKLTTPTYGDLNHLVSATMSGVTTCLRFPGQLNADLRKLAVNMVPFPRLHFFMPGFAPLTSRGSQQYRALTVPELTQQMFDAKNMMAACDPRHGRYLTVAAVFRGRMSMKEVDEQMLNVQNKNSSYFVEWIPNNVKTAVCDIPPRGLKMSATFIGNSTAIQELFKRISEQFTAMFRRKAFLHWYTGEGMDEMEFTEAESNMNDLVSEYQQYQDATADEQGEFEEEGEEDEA
T1 sequence (P02550 whole entry): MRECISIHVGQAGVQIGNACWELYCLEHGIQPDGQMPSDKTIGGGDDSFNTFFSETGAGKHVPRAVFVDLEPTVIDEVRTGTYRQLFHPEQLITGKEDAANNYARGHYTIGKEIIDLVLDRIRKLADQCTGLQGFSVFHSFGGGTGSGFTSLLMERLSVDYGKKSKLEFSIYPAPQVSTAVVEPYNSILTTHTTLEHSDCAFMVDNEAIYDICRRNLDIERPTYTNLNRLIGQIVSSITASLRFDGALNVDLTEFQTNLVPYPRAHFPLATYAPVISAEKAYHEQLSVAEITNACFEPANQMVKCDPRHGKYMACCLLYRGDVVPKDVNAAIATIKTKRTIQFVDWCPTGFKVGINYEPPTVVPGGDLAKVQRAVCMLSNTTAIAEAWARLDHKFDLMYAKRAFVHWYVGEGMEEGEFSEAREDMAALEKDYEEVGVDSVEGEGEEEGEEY
Put plainly: Tubulin polymerisation assay (fluorescence-based). It counts as biochemical. As to conditions: 10 µM, 37 °C. Here is the method: The tubulin polymerisation experimental protocol followed the method described in this literature.[28] The experimental was using fluorescence-based assay kit (Cytoskeleton, catalog no. BK011P). In Brief, 5 µL of test compounds was added to a 96-well plate, then mix with 50 µL of a solution containing porcine brain tubulin (2 mg mL^−1) in buffer with 20% glycerol and 1 mM GTP. A microplate reader (Varioskan™ LUX multimode microplate reader, Thermo Scientific™) was used to measure fluorescence intensity every 60 seconds for 60 minutes, with excitation at 360 nm and emission at 450 nm, maintained at 37 °C throughout the experiment.

Take `O=C(N/N=C/c1cc([N+](=O)[O-])c[nH]1)c1[nH]c2ccc(Br)cc2c1-c1ccccc1` [Derivative 3q, (E)-5-Bromo-N′-((4-nitro-1H-pyrrol-2-yl)methylene)-3-phenyl-1H-indole-2-carbohydrazide]: the 50% growth inhibitory concentration (GI50) with RPMI-8226 amounted to 3.71 µM; with SR, 0.405 µM; in the test with HOP-62, 1.26 µM; in the test with M14 it was 0.574 µM; with A498, 10.7 µM; with ACHN, 0.791 µM. The GI50 in the test on MDA-MB-231/ATCC stood at 17.4 µM. For the same compound, the CC50 with RPMI-8226, with SR, in the test with HOP-62, with M14, in the test on A498 and in the test on ACHN was more than 100 µM throughout. In addition, the CC50 in the test with MDA-MB-231/ATCC was more than 100 µM. Further, the “tubulin inhibition” value on porcine brain tubulin was “no tubulin inhibition properties”.

Consider `CCc1ccc(/C=N/NC(=O)c2[nH]c3ccc(Br)cc3c2-c2ccccc2)[nH]1` [Derivative 3s, (E)-5-Bromo-N′-((5-ethyl-1H-pyrrol-2-yl)methylene)-3-phenyl-1H-indole-2-carbohydrazide], for which the GI50 with RPMI-8226 amounted to 0.375 µM; in the test with SR it was 0.419 µM; in the test on HOP-62 it was 0.861 µM; in the test with M14 it was 0.318 µM; in the test with A498, 5.59 µM; with ACHN, 0.861 µM. The compound further returned a 50% growth inhibitory concentration (GI50) in the test with MDA-MB-231/ATCC of 0.63 µM. The CC50 in the test with RPMI-8226 is more than 100 µM; in the test on SR, more than 100 µM; in the test on HOP-62, 46.2 µM; in the test with M14, 38.7 µM; in the test with A498, 47.2 µM; in the test on ACHN, 36.6 µM. In addition, the CC50 in the test on MDA-MB-231/ATCC came to 48.4 µM. Moreover, the “RFU in tubulin polymerization assay” value on porcine brain tubulin was approximately 55 arbitrary units.

On to `CCc1c[nH]c(/C=N/NC(=O)c2[nH]c3ccc(Br)cc3c2-c2ccccc2)c1` [Derivative 3t, (E)-5-Bromo-N′-((4-ethyl-1H-pyrrol-2-yl)methylene)-3-phenyl-1H-indole-2-carbohydrazide], for which the concentration for 50% growth inhibition (GI50) in the test with RPMI-8226 was 0.343 µM; in the test with SR, 0.446 µM; with HOP-62, 1.35 µM; in the test on M14, 0.337 µM; in the test with A498 it was 13.7 µM; with ACHN it was 0.628 µM. Besides, in the test with MDA-MB-231/ATCC, the 50% growth inhibitory concentration (GI50) was found to be 0.311 µM. The CC50 was more than 100 µM in the test with RPMI-8226; more than 100 µM in the test with SR; 37.5 µM with HOP-62; 38.4 µM in the test on M14; 54.5 µM with A498; 35.5 µM with ACHN. For the same compound, the CC50 with MDA-MB-231/ATCC worked out at 42.4 µM. Besides, the “RFU in tubulin polymerization assay” value at porcine brain tubulin was approximately 55 arbitrary units.

For the compound `CCc1cc[nH]c1/C=N/NC(=O)c1[nH]c2ccc(Br)cc2c1-c1ccccc1` [Derivative 3u, (E)-5-Bromo-N′-((3-ethyl-1H-pyrrol-2-yl)methylene)-3-phenyl-1H-indole-2-carbohydrazide], the concentration for 50% growth inhibition (GI50) in the test with RPMI-8226 came out at 2.04 µM; with SR, 2.02 µM; in the test on HOP-62, 3.77 µM; in the test on M14, 1.62 µM; with A498 it was 1.45 µM; with ACHN it was 3.27 µM. The compound also returned a concentration for 50% growth inhibition (GI50) with MDA-MB-231/ATCC of 5.02 µM. Besides, the CC50 was 78.6 µM in the test on RPMI-8226; more than 100 µM in the test with SR; 45.8 µM in the test on HOP-62; 23.7 µM with M14; 55.4 µM in the test on A498; 36.7 µM with ACHN. The CC50 in the test with MDA-MB-231/ATCC was 44.7 µM. For the same compound, the “tubulin inhibition” value at porcine brain tubulin is “weak tubulin inhibitors”.
